Data on two compounds can be found in PMC3433255 (Journal of medicinal chemistry, 2012).

Series [1] concerns MCF-7 breast cancer cells. The series can be described thus: Growth inhibition, 3 h treatment. Type of series: cell-based, human. The settings on record: MCF-7, 3 h treatment followed by 3 – 4 days of growth; outside the concentration range; average of at least six measurements.
For series [2] the following is noted: physiological conditions, 37 °C and pH 7; cited from earlier work.

As for `COc1cccc2c1C(=O)c1c(O)c3c(c(O)c1C2=O)C[C@@](O)(C(=O)CO)C[C@@H]3O[C@H]1C[C@H](NC(=O)OCc2ccc(NC(=O)[C@H](CCCCN)NC(=O)[C@H](Cc3ccccc3)NC(=O)[C@@H](C)N)cc2)[C@H](O)[C@H](C)O1.O=P(O)(O)O` [aFK-Dox, N-(N-(D-alanyl-L-phenylalanyl-L-lysyl)-p-aminobenzyloxycarbonyl)-doxorubicin], the IC50 in series [1] is reported as > −6 log M. Regarding `COc1cccc2c1C(=O)c1c(O)c3c(c(O)c1C2=O)C[C@@](O)(C(=O)CO)C[C@@H]3O[C@H]1C[C@@H]2NCO[C@@H]2[C@H](C)O1` [doxaz, doxazolidine], the “half-life of hydrolysis to dox” value in series [2] is reported as “approximately 3 min”.
